Columns and labels:
RARβ = RARβ (Homo sapiens (Human), UniProt P10826); assay: Transactivation assay, human RARβ; format: cell-based; conditions: Table 1; all human data; read-out: RARβ potency EC50
Method: (§1) Transcriptional transactivation assays were performed with gal4 fusion receptor constructs, created using each of the RAR ligand binding domains of either mouse or human, co-transfected with the pFR-luc (Stratagene) reporter construct in COS-7 cells.
(§2) Briefly, on day 1, 96 well plates were seeded with 8000 cells per well then left to recover overnight. On day 2, the cells were co-transfected with 100 ng of reporter plasmid and 10 ng of the appropriate receptor plasmid per well using lipofectamine (Invitrogen). On day 3, the lipofectamine containing media was replaced by a DMEM without phenol red, followed by the addition of test compound dissolved in 1 μL of DMSO to each well's 100 μL total volume. Finally, on day 4, the cells were lysed and their luciferase substrate was provided by the BrightGlo™ reagent (Promega), the plates were then read on the MicroBeta TriLux™ (Perkin Elmer).
(§3) Data for test compounds are quoted as EC50 values. Where replicate data has been generated, the data are quoted as the mean EC50 from the separate experiments.

RARα [1] = molecular target: T1, RARα (Homo sapiens (Human), UniProt P10276); assay: Transactivation assay, human RARα; format: cell-based; conditions: Table 1; all human data
Method: as §1, §2, §3
Target sequence in this assay (P10276 183-417): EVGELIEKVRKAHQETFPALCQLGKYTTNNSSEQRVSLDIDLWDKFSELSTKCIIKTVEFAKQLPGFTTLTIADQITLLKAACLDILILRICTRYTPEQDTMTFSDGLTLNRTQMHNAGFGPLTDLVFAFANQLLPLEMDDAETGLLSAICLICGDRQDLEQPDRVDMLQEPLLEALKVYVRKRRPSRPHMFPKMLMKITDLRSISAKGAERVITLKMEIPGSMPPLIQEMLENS

RARγ [2] = molecular target: T2, RARγ (Homo sapiens (Human), UniProt P13631); assay: Transactivation assay, human RARγ; format: cell-based; conditions: Table 1; all human data
Method: as §1, §2, §3
Target sequence in this assay (P13631 185-419): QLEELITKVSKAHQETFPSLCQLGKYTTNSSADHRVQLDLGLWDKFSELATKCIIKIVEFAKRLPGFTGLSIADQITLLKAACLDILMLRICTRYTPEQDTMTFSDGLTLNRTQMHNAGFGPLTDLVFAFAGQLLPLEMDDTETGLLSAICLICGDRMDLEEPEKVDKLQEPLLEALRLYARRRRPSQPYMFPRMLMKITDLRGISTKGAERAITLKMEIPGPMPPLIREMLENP

[3] = tested on: rats with crushed corticospinal tract (CST); assay: Corticospinal tract (CST) crush at C4 in rats, i.c.v. treatment; tracing and behavioural tests; format: in vivo; conditions: rat
Method: FIGS. 1A and 1B show two graphs of the number of rat footslips as a function of the number of weeks after lesion, for grid task (FIG. 1A) and beam task (FIG. 1B).
All animal experiments were carried out under UK home office regulations. Dorsal column lesions were performed on adult male rats as previously described (see, e.g., Bradbury et al., 2002). […] The pumps were placed subcutaneously and connected to a brain infusion catheter (Alzet™), which was inserted into the lateral ventricle (Bregma coordinates: rostrocaudal: −0.8 mm, mediolateral: −1.5 mm and dorsoventral: −4.5 mm). […] The dose was based previous in vivo studies on activation of RARα and RARβ signalling in the adult rat brain (see, e.g., Goncalves et al., 2009). Animals which underwent behavioural studies and subsequent tracing (n=6 per treatment) were kept for six weeks before being sacrificed with a lethal injection of pentobarbital and transcardially perfused with 4% PFA. Dissected tissue (cervical and lumbar spinal cord) was processed for immunofluoresence.
Descendent corticospinal tract axons were anterogradely traced after the dorsal column crush was performed by injected BDA (10% in PBS, Mw10K from Molecular Probes) into the motor cortex as previously described (see, e.g., Yip et al., 2006). Six injections were done in the right cortex (0.5 μL of BDA/injection point). Animals (n=6 per treatment) were perfused and the spinal cord was transferred to PBS (plus 0.1% sodium azide) and embedded in gelatin (10%, 300 bloom; Sigma, Poole, UK). Gelatin blocks were hardened in 4% paraformaldehyde, and 40 μm free-floating serial transverse sections were cut on a vibratome (Leica, Nussloch, Germany) and collected in 24-well plates containing PBS (plus 0.1% sodium azide).
BDA was detected using the tyramide amplification kit (Perkin-Elmer) coupled with extra-avidin-FITC (Amersham Pharmacia Biotech, UK, 1:500). All BDA-labelled fibres observed within a 1-mm square grid were counted at measured intervals from 5 mm above to 5 mm below the lesion site by an experimenter, blinded to treatment.
CST neurons were labelled by retrograde tracing injecting 2 μL of 5% Fluorogold (FG, Molecular Probes) 2 mm deep into the cervical spinal cord (C3-C4) at a rate of 0.5 μL/minute (n=3 rats per group). In sham animals, FG was injected 0.5 mm bilateral to the medial line of spinal cord (1 μL per side), and in lesioned animals FG (2 μL) was injected into the injury. After 14 days, the cortices were fixed for 2 hours in 4% paraformaldehyde (PFA), embedded in OCT compound and stored frozen. Sagittal sections (12 μm) were cut and 4 sequential slides containing 2 sections from lateral 3.4-3.9 mm were taken for analysis (see, e.g., Paxinos and Watson, 2002).
Immunohistochemistry was carried out using anti-rabbit phospho-Akt (Cell Signalling technology, dilution of 1:100). Secondary antibody used was anti-rabbit Cy3 conjugated (Jackson, used at 1:1000). Images were captured at 100× magnification using a Roperscientific digital camera.
The behavioural tests were carried out as previously described (see, e.g., Bradbury et al., 2002). Rats (n=6 per treatment group) were first trained for two weeks before surgery to perform grid walk and beam walk; they were then tested by an observer blinded to the experimental treatment once a week for five weeks after lesion.

[4] = tested on: rats with severed sensory roots; assay: Severed and re-implanted sensory roots (DRG, left forelimb) in rats; sticky tape tests; format: in vivo; conditions: rat, 1 mg/kg two days after lesion, then three times a week
Method: In another example of nerve injury, the four sensory roots from each of four DRG at the level of the left forelimb were severed and re-implanted into the spinal cord.
FIGS. 2A and 2B show two graphs of the time taken for rats to sense sticky tape (FIG. 2A) and to remove sticky tape (FIG. 2B) that is placed on its injured forepaw, as a function of the number of weeks after injury. Rats were treated with 1 mg/kg of the test compound or vehicle two days after lesion, and then three times a week for the period of the experiment. Error bars show SEM. ***P<0.001, students t test, n=3-4 rats for each treatment group. At weeks 3, 4, and 5, there was significant difference between the rats treated with RARβ agonist as compared to rats treated with other retinoid agonists and vehicle.

cerebellar neurons = assay: Neurite outgrowth assay, cerebellar neurons in the presence of myelin/MAG; format: cell-based, rat
Method: (§4) Cerebellar neurons isolated from post-natal day 3 rat pups were cultured over monolayers of parental 3T3 cells in control media, or media supplemented with a recombinant MAG-Fc chimera (R&D Systems) used at a final concentration of 20 μg/mL MAG-Fc. The monolayers were established for 24 hours prior to addition of the neurons and the co-cultures were maintained for approximately 21 hours. Following careful fixation with 4% paraformaldehyde, the neurons were immuno-stained with a GAP-43 antibody (from Graham Wilkin, Imperial College), dilution of 1:500, and the mean length of the longest neurite per cell was measured for approximately 120-150 neurons as previously described (see, e.g., Williams et al., 2005). DRG and cortical explants were obtained from adult rats, they were cultured in cellogen as previously described (see, e.g., Corcoran and Maden, 1999). Three explants per treatment were used. Neurite outgrowth was assessed 3 days later by immunohistochemistry with NF200 (Sigma, dilution of 1:200). The average lengths of the neurites were measured using image pro plus software. Media consisted of DMEM-F12 (Invitrogen) containing N2 (Invitrogen) supplemented with glucose (33 mM) and glutamine (2 mM).

phospho-Akt = assay: Western blot of cerebellar cultures for phospho-Akt; format: cell-based, rat; conditions: cerebellar cultures treated with 1 μM
cortex explants = assay: Neurite outgrowth from cultured cortex of treated lesioned animals; format: cell-based, rat; conditions: cortex from lesioned rats treated in vivo
Method: When pieces of cortex from these RARβ agonist treated animals were cultured, neurite outgrowth was observed, in contrast to cortex from control lesioned animals.
as §4

RARα [5] = molecular target: T1, RARα; conditions: Bernard et al., 1992; Delescluse et al., 1991; cited from earlier work
Target sequence in this assay (P10276 whole entry, species assumed): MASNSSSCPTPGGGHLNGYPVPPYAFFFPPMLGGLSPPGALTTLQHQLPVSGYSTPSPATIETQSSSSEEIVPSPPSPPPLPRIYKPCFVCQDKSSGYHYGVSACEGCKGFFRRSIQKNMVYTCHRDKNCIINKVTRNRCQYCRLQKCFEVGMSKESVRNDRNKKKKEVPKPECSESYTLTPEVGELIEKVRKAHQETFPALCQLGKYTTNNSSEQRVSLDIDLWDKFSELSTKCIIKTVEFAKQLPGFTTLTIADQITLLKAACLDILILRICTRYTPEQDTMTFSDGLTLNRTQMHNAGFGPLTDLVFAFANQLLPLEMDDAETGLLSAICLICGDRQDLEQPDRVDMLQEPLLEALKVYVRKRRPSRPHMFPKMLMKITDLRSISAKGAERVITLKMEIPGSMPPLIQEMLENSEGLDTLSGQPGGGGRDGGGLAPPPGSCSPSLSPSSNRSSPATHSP

RARγ [6] = molecular target: T2, RARγ; conditions: Bernard et al., 1992; Delescluse et al., 1991; cited from earlier work
Target sequence in this assay (P13631 whole entry, species assumed): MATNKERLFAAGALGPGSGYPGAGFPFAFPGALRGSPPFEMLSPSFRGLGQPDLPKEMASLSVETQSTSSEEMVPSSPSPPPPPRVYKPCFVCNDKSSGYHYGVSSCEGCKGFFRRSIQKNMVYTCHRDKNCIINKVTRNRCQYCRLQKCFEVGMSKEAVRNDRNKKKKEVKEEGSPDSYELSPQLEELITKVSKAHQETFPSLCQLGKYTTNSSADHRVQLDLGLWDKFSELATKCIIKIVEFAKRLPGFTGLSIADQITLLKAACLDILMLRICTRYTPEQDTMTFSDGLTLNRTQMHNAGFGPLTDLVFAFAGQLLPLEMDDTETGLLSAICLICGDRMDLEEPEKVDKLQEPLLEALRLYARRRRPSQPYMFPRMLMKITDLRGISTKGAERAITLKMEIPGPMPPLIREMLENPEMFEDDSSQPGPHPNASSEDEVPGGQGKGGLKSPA

[7] = i.c.v. 180 ng/kg/day for 14 days

RARβ, sequence (P10826 183-417): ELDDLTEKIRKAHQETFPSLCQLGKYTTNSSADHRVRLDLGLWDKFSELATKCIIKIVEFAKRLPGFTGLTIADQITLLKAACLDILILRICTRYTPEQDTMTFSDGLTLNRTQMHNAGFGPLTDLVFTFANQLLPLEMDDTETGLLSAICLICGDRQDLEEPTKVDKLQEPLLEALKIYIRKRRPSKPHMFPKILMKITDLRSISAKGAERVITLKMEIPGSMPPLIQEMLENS

EC50 (RARβ): 0.83 nM
Selectivity over RARα (RARα [1]): 11-fold
Selectivity over RARγ (RARγ [2]): 1.9-fold
SMILES: COc1ccc(-c2ccc3cc(C(=O)O)ccc3c2)cc1C1(C)CCCCC1 [CD2019, 6-(4-methoxy-3-(1-methylcyclohexyl)phenyl)-2-naphthalenecarboxylic acid]
Phospho AKT in the injured CST neurons in vivo [3]: induced
BDA labelled CST axons crossing the lesion site ([3]; after 5 weeks): many axons were observed crossing the injury site
RARβ2 expression in CST neuronal cell bodies ([3]; applied to the lateral ventricle for 2 weeks): upregulation of RARβ 2
Behavioural tests after 5 weeks (CST lesion) ([3]; grid walk and beam walk): performed as well as non-lesioned animals
Functional recovery of the forelimb in beam task (footslips), time of recovery [3, 7]: 2 weeks post lesion
Functional recovery of the forelimb in grid task (footslips), time of recovery [3, 7]: 4 weeks post lesion
Behavioural tests after 5 weeks (severed sensory roots) [4]: performed as well as non-lesioned animals
Neurite outgrowth of cerebellar neurons grown in the presence of myelin (cerebellar neurons): causes the outgrowth of neurites
Increase in neuronal phospho-Akt (not total Akt) compared to control cultures (phospho-Akt): 4 fold
Axon/neurite outgrowth from cultured adult cortex of treated animals (cortex explants): did grow
Selectivity RARβ over RARα (RARα [5]): 5 fold
Selectivity RARβ over RARγ (RARγ [6]): 12 fold
